Here are results for two compounds from publication PMC4129108, “The natural triterpene 3β,6β,16β-trihydroxy-lup-20(29)-ene obtained from the flowers of Combretum leprosum induces apoptosis in MCF-7 breast cancer cells” (BMC Complementary and Alternative Medicine, 2014).

≈ marks a conversion by molar mass, not a printed value.

The subject of assay [1] is S. cerevisiae EG103 (SOD-WT). In words: Yeast survival assay, EG103 (SOD-WT). It counts as cell-based, Saccharomyces cerevisiae. The following applies: positive control H2O2 5 mM, 1 h in PBS. The protocol: (§1) Media, solutions and buffers were prepared according to Burke et al.. YPD medium (0.5% yeast extract, 2% peptone, 2% glucose) was used for routine growth. Synthetic medium SC (0.67% yeast nitrogen base, 0.1% ammonium sulfate, 2% glucose) supplemented with the appropriate amino acids and bases ([…]) was used for the detection of mutations.
(§2) Stationary phase (STAT) cultures were obtained by inoculation of a single colony into liquid YPD. We chose to work in the stationary phase of growth because this resembles most cells of multicellular organisms in important aspects: (i) most energy comes from mitochondrial respiration; (ii) the cells have left the active cell cycle and have entered the Go phase; and (iii) damage accumulates over time.
(§3) STAT cells (1 × 10^8 cells/mL) were exposed to TTHL (10–500 μg/mL) and incubated under growth conditions for 1 h in PBS at 30°C. Cells were then washed and treated with H2O2 (5 mM) in PBS for another hour. Suitable aliquots were plated in triplicate on solid YPD (2–3 days, 30°C) and colony-forming units were counted. Sensitivity was expressed as a percentage of survival in relation to the negative control (solvent).

For assay [2], the system named is S. cerevisiae EG133 (sod1Δsod2Δ). In words: Yeast survival assay, EG133 (sod1Δsod2Δ). It counts as cell-based, Saccharomyces cerevisiae. The following applies: positive control H2O2 5 mM, 1 h in PBS. The protocol: as §1, §2, §3
For assay [3], the system named is S. cerevisiae EG118 (sod1Δ). Description: Yeast survival assay, EG118 (sod1Δ). The following applies: positive control H2O2 5 mM, 1 h in PBS. Type of assay: cell-based, Saccharomyces cerevisiae. The protocol: as §1, §2, §3
In assay [4] the test system is S. cerevisiae EG110 (sod2Δ). Description: Yeast survival assay, EG110 (sod2Δ). Type of assay: cell-based, Saccharomyces cerevisiae. The settings on record: positive control H2O2 5 mM, 1 h in PBS. The protocol:
as §1, §2, §3

In assay [5] the test system is HT29 cell (colorectal adenocarcinoma). In words: XTT cell viability assay, HT29. It counts as cell-based, human. The following applies: Homo sapiens, HT-29; HT29, 24 h treatment, XTT. The protocol: (§4) The human cell lines MCF-7 (breast adenocarcinoma), HepG2 (hepatoma), T24 (bladder cancer), CACO-2 (colorectal adenocarcinoma) and MRC5 (lung normal fibroblast) were obtained from the Rio de Janeiro Cell Bank (Rio de Janeiro, RJ, Brazil). The HCT116 cell (colorectal carcinoma), and HT29 cell (colorectal adenocarcinoma) were kindly provided by Dr. Annette K. Larsen (Institut National de la Santé et de la Recherche Médicale - INSERM, Paris, França). All cell lines except MCF-7 were grown in DMEM supplemented with 10% or 20% (for CACO-2) FBS, 100 units.mL^-1 penicillin and 100 μg.mL^-1 streptomycin at 37°C in a humidified atmosphere of 5% CO2. MCF-7 cells were maintained in RPMI-1640 supplemented with 20% FBS at the same conditions described above.
(§5) The cytotoxic potential of the TTHL was evaluated by the XTT assay in human tumor cell lines as well as in MRC5 normal fibroblasts. Cells (1 × 10^4 cells) were seeded on 96-well plates in growth medium and incubated overnight. Afterwards, TTHL (0.5, 1.0, 2.5, 5.0, and 10 μg/mL) was added to each well and incubated for 24, 48, 72, and 120 h. Mitoxantrone, a cytostatic anthracenedione that intercalates in DNA and increases the incidence of double-strand breaks by stabilizing the cleavable complex of topoisomerase II and DNA, was used as positive control. At the end of each treatment, cell viability was assessed according to the manufacturer’s instructions. Briefly, after discarding the medium, 1 mL of XTT labeling mixture was added to the cells and incubated for 2 h at 37°C. Absorbance was measured with a SpectraMax reader (Bio-Rad, USA) at a test wavelength of 492 nm (A492) and a reference wavelength of 690 nm (A690). The final result corresponds to A492-A690. The absorbance of negative control cells was set as 100% viability, and the values for treated cells were calculated as a percentage of the control.
(§6) The IC20, IC50, and IC80 values and their 95% confidence intervals (CI 95%) were obtained by nonlinear regression using GraphPad Prism v5 program (Intuitive Software for Science, San Diego, CA, USA). Selective index (SI) was calculated by IC50 in MRC5 cells/IC50 in tumoral cells. All experiments were independently repeated at least three times, with triplicate samples for each treatment. Results are expressed as means ± standard deviation (SD). Data were analyzed by one-way analysis of variance (ANOVA), and means were compared using Tukey test, with P ≤ 0.05 considered as statistically significant.

In the next assay the test system is T24 (bladder cancer). Description: XTT cell viability assay, T24. The settings on record: Homo sapiens; T24, 24 h treatment, XTT. Type of assay: cell-based, human. The protocol:
as §4, §5, §6

The test system of assay [6] is CACO-2 (colorectal adenocarcinoma). Description: XTT cell viability assay, CACO-2. Type of assay: cell-based, human. The settings on record: Homo sapiens; CACO-2, 24 h treatment, XTT. How it is done: as §4, §5, §6
For another assay, the system named is HepG2 (hepatoma). In words: XTT cell viability assay, HepG2. It counts as cell-based, human. The following applies: Homo sapiens; HepG2, 24 h treatment, XTT. The protocol: as §4, §5, §6
For orientation: Tetrazolium dyes change colour on reduction, which living cells bring about.

Assay [7] deals with MCF-7 (breast adenocarcinoma). In words: XTT cell viability assay, MCF-7. Type of assay: cell-based, human. The following applies: Homo sapiens, MCF7; MCF-7, 24 h treatment, XTT. How it is done:
as §4, §5, §6

Assay [8] has as its system HCT116 cell (colorectal carcinoma). In words: XTT cell viability assay, HCT116. It counts as cell-based, human. The following applies: Homo sapiens, HCT-116; HCT116, 24 h treatment, XTT. How it is done:
as §4, §5, §6

The test system of assay [9] is MRC5 (lung normal fibroblast). In words: XTT cell viability assay, MRC5 normal fibroblasts. The settings on record: Homo sapiens, MRC5, 24 h treatment. It counts as cell-based. The protocol:
as §4, §5, §6

Another assay has as its system tumor cell lines. In words: XTT cell viability assay, panel of tumor cell lines. The following applies: Homo sapiens, read-out: IC50 values in tumor cell lines (range over the panel). It counts as cell-based. How it is done:
as §4
The cytotoxic potential of the TTHL was evaluated by the XTT assay in human tumor cell lines as well as in MRC5 normal fibroblasts. Cells (1 × 10^4 cells) were seeded on 96-well plates in growth medium and incubated overnight. […] At the end of each treatment, cell viability was assessed according to the manufacturer’s instructions. […] Absorbance was measured with a SpectraMax reader (Bio-Rad, USA) at a test wavelength of 492 nm (A492) and a reference wavelength of 690 nm (A690). […] The absorbance of negative control cells was set as 100% viability, and the values for treated cells were calculated as a percentage of the control. […]

For `OO` [H2O2, hydrogen peroxide, reference compound], the “survival (percentage in relation to negative control)” value was 63.03 ± 4.12% in assay [1], 19.33 ± 2.10% in assay [2], 16.27 ± 4.88% in [3] and 19.10 ± 4.03% in assay [4].

On to `O=C1c2c(O)ccc(O)c2C(=O)c2c(NCCNCCO)ccc(NCCNCCO)c21` [MXT, mitoxantrone, reference compound], for which the half-maximal inhibitory concentration (IC50) – broadly, the concentration that inhibits the measured activity by half – in assay [5] came out at 0.88 ± 2.33 µg/mL (≈ 1.98 µM); in the assay with T24 (bladder cancer) it was 2.5 ± 0.62 µg/mL (≈ 5.62 µM); in assay [6], 2.4 ± 1.81 µg/mL (≈ 5.4 µM); in the assay on HepG2 (hepatoma), 3.5 ± 0.39 µg/mL (≈ 7.87 µM); in assay [7], 0.87 ± 1.59 µg/mL (≈ 1.96 µM); in [8] it was 0.61 ± 0.67 µg/mL (≈ 1.37 µM). In addition, the figures for the IC50 (in [9]; in the assay with tumor cell lines) were 2.88 ± 1.44 µg/mL (≈ 6.48 µM) and 0.61 to 3.5 µg/mL (≈ 1.37 to 7.87 µM), respectively.
